# Biological target: MAP kinase-interacting serine/threonine-protein kinase 1 (Homo sapiens, UniProt Q9BUB5)
# Assay: Inhibition of human full-length MKNK1 using biotin-Ahx-IKKRKLTRRKSLKG substrate by TR-FRET-based high ATP assay
# Sequence of MAP kinase-interacting serine/threonine-protein kinase 1 (Q9BUB5 whole entry): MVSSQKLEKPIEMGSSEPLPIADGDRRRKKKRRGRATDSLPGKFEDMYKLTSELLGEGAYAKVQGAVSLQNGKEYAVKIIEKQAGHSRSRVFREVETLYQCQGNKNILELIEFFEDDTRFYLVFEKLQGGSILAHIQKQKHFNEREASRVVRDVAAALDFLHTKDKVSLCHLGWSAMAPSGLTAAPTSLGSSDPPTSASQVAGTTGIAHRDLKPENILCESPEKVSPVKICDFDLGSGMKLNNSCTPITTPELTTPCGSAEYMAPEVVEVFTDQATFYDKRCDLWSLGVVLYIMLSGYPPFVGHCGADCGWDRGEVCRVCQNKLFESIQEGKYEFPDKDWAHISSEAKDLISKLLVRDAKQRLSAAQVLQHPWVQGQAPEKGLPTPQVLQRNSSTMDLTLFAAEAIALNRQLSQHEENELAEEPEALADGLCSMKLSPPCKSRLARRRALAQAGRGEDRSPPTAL
row,Compound,IC50
1,COc1cc2[nH]ncc2cc1Nc1ncnc2[nH]c3c(c12)CC(C(=O)NCc1ccccc1)CC3 (stereo unspecified),1 nM
2,CCNC(=O)C1CCc2[nH]c3ncnc(Nc4cc5cn[nH]c5cc4OC)c3c2C1 (stereo unspecified),6 nM
3,COc1cc(Cl)c(Cl)cc1Nc1ncnc2[nH]c3c(c12)CC(C(=O)NC1CC1)CC3 (stereo unspecified),6 nM
4,CC(C)Oc1cc2[nH]ncc2cc1Nc1ncnc2[nH]c3c(c12)CCCC3,5 nM
5,CC(C)Oc1cc2[nH]ncc2cc1Nc1ncnc2[nH]c3c(c12)CC(C(=O)NCCCS(C)(=O)=O)CC3 (stereo unspecified),1 nM
6,O=C1OCCOc2cc(F)ccc2Nc2ncnc3[nH]c4c(c23)CC1CC4 (stereo unspecified),3540 nM

# Source: ChEMBL document CHEMBL3352740, “Pyrrolopyrimidine Analogues as MKNK Inhibitors” (ACS Med Chem Lett, 2015)
